Experimental data published in patent publication US20240425630A1, “POLYMER DISPERSION COMPOSITION” (Dow Global Technologies LLC, priority 2021, published 2024).
Like-named read-outs stand apart in the source and are kept apart here.

Assays:
[1] = cited from earlier work
[2] = Surfactant pKaH by acid-base titration
Description: Surfactant pKaH values were either collected from literature sources or measured according to the method described herein. The surfactant (1 g) was mixed with deionized water (60 g). Next, preparation steps were taken to convert all of the surfactants to their respective salt forms. Surfactants which are already in fully neutralized salt form (e.g., Geropon CG 3S, Geropon LG 3S, and Aminosyl SLG) were titrated “as is” (i.e., as received from the supplier). Surfactants in acid form were mixed with enough aqueous 0.5 M KOH (potassium hydroxide) to increase the solution pH to a pH of 10. Sodium lauroyl lactylate (Capmul S12L, 1 g) was mixed with 1.4 g TERGITOL™15-S-40 (70%), followed by enough aqueous 0.5 M KOH (potassium hydroxide) to increase the solution pH to a pH of 10. After the respective preparation steps above, the surfactant solutions were titrated with 0.5 M HCl to pH 2 while recording the pH and the amount of 0.5 M HCl added using a titrator, Mettler Toledo T70.

[3] = literature data (footnotes of Table II)

Compound | pKaH [1, 3] | other results
CCCCCCCC/C=C\CCCCCCCC(=O)O [Oleic acid (C18:1 cis-9), Oleic acid] | 9.85 | 
CCCCCCCCCCCC(=O)O [Lauric acid (C12), Lauric acid] | 7.5 | 
sodium dodecylbenzenesulfonate |  | pKaH ([1]; stated in the discussion, no source given): less than 2.6
CCCCCCCCCCCC(=O)N(C)CC(=O)O [N-Lauroyl sarcosine] |  | pKaH [2]: 5.3
CCCCCCCCCCCCCC(=O)O [Myristic acid (C14), Myristic acid] | 8.1-8.2 | 
CCCCCCCC(=O)O [n-octanoic acid] | 6.3-6.5 | 
CCCCCCCCCC(=O)O [Capric acid (C10), Capric acid] | 7.1-7.3 | 
CCCCCCCCCCCC(=O)OC(C)C(=O)OC(C)C(=O)[O-].[Na+] (stereo not shown) [Sodium lauroyl lactylate] |  | pKaH ([2]; titrated with 0.5 M HCl, pH at mid-point to the equivalence point): 5.25
CCCCCCCCCCCCCCCC(=O)O [Palmitic acid (C16), Palmitic acid] | 8.6-8.8 | 
CCCCCCCCCCCCCCCCCC(=O)O [Stearic acid (C18), Stearic acid] | 10.15 | 
